# Article PMC6328587 (Nature Communications, 2019)
# What was measured:
# ERK1 = target: T1, ERK1 (Homo sapiens, UniProt P27361); test: ERK1 degradation, western blot in MDA-MB-231 cells; format: cell-based; settings: 0.025-2.5 µM
# T1 construct: endogenous in cells; host or cells: MDA-MB-231
# Protocol: (§1) […] once with ice-cold PBS (1 × ), followed by lysis in buffer containing 25 mM Tris [pH 7.5], 0.25% sodium deoxycholate, 1% Triton X-100, supplemented with 1X protease inhibitor cocktail (Roche), and phosphatase inhibitors (10 mM NaF, 1 mM Na3VO4, and 20 mM β-glycerophosphate), unless otherwise noted. Lysates were spun at 14,000 × g for 10 min at 4 °C and supernatant was evaluated for protein content using a Pierce BCA Protein Assay (ThermoFisher Scientific). In all experiments, 25–50 μg of protein was loaded onto 10% SDS-PAGE gels or 4–20% Criterion TGX precast gradient gels (Bio-Rad), transferred to nitrocellulose membranes, and probed with the specified antibodies overnight at 4 °C in 1X TBS-Tween (Tris-buffered saline plus 0.02% Tween 20) containing 5% non-fat milk. Immunoblots were visualized using a Bio-Rad ChemiDoc imaging instrument and subsequently processed and quantified using the accompanying Bio-Rad ImageLab software. See Supplementary Figure 8 for uncropped scans of western blots shown in the main text figures.
# (§2) Supplementary Figure 4 cont.
# (§3) Supplementary Figure 4. Characterization of M APK fam ily degradation selectivity (related to Figures 1-2). (a) p38 M APK fam ily m em bers (α, β, δ, γ) were aligned using the T-Coffee multiple sequence alignm ent server. […] Note: JNK1 and JNK2 are expressed as two alternatively-spliced form s. […]
# ERK2 = target: T2, ERK2 (Homo sapiens, UniProt P28482); test: ERK2 degradation, western blot in MDA-MB-231 cells; format: cell-based; settings: 0.025-2.5 µM
# T2 construct: endogenous in cells; host or cells: MDA-MB-231
# Protocol: as §1, §2, §3
# p38δ = target: T3, p38δ (Homo sapiens, UniProt O15264); test: CETSA in MDA-MB-231 cell lysate, p38δ; format: binding; settings: 100 µM PROTAC, 51-55 °C, vs DMSO
# T3 construct: endogenous in cells; host or cells: MDA-MB-231
# T3 sequence (O15264 1-365): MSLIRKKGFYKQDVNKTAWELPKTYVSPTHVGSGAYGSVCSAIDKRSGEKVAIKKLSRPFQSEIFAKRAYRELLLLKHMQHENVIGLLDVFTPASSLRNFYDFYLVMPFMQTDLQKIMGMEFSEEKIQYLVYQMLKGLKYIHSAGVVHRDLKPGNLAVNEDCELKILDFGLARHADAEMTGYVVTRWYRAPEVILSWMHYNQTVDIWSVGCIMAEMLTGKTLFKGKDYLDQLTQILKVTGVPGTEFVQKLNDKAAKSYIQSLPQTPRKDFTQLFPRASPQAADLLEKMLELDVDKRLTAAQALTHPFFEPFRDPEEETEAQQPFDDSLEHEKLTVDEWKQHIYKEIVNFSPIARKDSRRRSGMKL
# Protocol: CETSA protocol was adapted from[60]. In all, 3 × 10^7 MDA-MB-231 cells (1 × 10^7 cells per condition) were collected and resuspended in ice-cold 1X PBS supplemented with 1X protease inhibitor cocktail (Roche) and lysed by three cycles of liquid nitrogen snap freeze, followed by 50% thaw in a room temperature water bath and an additional 50% thaw at 4 °C. After each freeze–thaw cycle, lysate was vortexed briefly to ensure homogenous thawing. Lysate was then cleared for 20 min by centrifugation (14,000 × g at 4 °C) and the soluble fraction was divided into three equal aliquots. The aliquots were treated with vehicle (2.5% DMSO), 100 µM SJFα, or 100 µM SJFδ and incubated at room temperature for 30 min with gentle rotation. Each aliquot was then divided (50 µL) into eight PCR tubes and individually heated at the indicated temperature for 3 min followed by cooling at room temperature for 3 min. After cooling, samples were spun down for 20 min (14,000 × g at 4 °C) and the supernatant (soluble fraction) was analyzed by SDS-PAGE and immunoblotted for p38δ and alpha-tubulin (negative control).
# [1] = target: T4, p38α:PROTAC:VHL ternary complex (Homo sapiens, UniProt P40337+Q16539); test: In vitro ternary complex pull-down, GST-VBC bait, purified p38α; format: binding; settings: all concentrations tested
# T4 construct: The plasmid contains an N-terminal His6 tag and encodes a region spanning amino acids 2–360 of the human p38α kinase; made in house; host or cells: E. coli BL21-CodonPlus(DE3)-RIPL (p38α); E. coli BL21(DE3) (GST-VBC)
# Protocol: Glutathione Sepharose 4B (Glutathione-conjugated beads in a slurry containing 20% ethanol) were washed twice with 1X wash buffer (50 mM HEPES pH 7.5, 150 mM NaCl, 1 mM DTT, 0.01% NP40, 5 mM MgCl2, 10% Glycerol) and then blocked for 1 h at room temperature with 10% bovine serum albumin (BSA) in wash buffer. The beads were then washed again three times with wash buffer and then purified GST-VBC (stable form of VHL complexed with EloB/EloC, described above) was immobilized for 1 h at 4 °C at 3.6 pmole µL^–1 of beads. The beads were then washed three times with wash buffer, resuspended, divided into two equal volumes, and p38α or p38δ protein was added. The bead:p38 mixture was then aliquoted to separate tubes and PROTAC was added at the indicated concentration (PROTACs were intermediately diluted in 10% DMSO and 0.25% CHAPS). This mixture was incubated at 4 °C for 2 h. The beads were washed three times with 10 column volumes of wash buffer and then eluted with SDS loading buffer at 75 °C for 10 min.
# T1 sequence (P27361 whole entry): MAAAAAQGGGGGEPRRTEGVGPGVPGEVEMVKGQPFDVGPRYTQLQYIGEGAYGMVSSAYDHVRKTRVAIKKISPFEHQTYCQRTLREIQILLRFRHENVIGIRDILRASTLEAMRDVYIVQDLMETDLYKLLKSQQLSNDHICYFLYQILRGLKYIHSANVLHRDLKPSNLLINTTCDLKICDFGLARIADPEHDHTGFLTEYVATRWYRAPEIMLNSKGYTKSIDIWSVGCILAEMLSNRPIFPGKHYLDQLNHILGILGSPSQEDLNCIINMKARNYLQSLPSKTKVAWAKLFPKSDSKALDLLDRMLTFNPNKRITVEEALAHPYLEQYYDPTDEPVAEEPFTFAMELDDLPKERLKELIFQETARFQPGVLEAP
# T2 sequence (P28482 whole entry): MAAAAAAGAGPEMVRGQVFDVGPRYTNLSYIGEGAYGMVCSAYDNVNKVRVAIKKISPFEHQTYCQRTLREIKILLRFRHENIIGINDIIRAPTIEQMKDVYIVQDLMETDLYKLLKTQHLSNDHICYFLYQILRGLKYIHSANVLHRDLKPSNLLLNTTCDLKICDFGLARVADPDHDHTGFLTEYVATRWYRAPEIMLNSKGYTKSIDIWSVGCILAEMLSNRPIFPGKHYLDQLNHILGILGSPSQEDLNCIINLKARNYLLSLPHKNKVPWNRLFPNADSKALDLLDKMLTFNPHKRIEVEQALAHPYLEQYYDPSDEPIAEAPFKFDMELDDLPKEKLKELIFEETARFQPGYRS
# T4 sequence (Q16539 2-360 limits assumed): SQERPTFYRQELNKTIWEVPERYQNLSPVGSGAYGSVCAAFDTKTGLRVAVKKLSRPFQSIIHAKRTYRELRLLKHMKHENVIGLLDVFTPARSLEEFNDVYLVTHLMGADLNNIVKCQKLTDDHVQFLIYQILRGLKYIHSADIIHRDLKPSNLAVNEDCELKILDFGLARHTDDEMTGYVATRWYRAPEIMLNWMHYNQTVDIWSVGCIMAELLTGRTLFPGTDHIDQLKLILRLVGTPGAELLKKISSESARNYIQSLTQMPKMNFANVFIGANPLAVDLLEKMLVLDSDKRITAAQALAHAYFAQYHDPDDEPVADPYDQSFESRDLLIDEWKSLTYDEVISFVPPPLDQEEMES
# T4 sequence (P40337 whole entry, the tested form may be a part): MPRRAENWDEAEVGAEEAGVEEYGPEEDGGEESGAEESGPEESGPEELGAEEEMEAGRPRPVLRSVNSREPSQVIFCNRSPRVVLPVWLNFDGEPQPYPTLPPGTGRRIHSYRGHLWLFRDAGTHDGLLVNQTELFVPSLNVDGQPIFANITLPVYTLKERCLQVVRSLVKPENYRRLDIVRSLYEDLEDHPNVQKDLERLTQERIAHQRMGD
# T4 sequence (Q15370 whole entry partner, the tested form may be a part): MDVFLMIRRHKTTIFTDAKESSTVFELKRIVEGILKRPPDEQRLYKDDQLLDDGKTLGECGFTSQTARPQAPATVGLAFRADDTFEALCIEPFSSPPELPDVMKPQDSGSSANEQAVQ
# T4 sequence (Q15369 whole entry partner, the tested form may be a part): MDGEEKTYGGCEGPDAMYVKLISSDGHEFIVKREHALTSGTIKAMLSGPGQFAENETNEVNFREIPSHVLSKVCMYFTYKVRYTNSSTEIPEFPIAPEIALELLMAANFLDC
SMILES,ERK1 degradation (ERK1),ERK2 degradation (ERK2),thermal shift in the p38δ melting profile (p38δ),enrichment of purified p38α on GST-VBC bait [1]
COc1cc2c(Oc3ccc(NC(=O)C4(C(=O)Nc5ccc(F)cc5)CC4)cc3F)ccnc2cc1OCCOCCOCCOc1cc(-c2scnc2C)ccc1CNC(=O)[C@@H]1C[C@@H](O)CN1C(=O)[C@H](C(C)C)N1Cc2ccccc2C1=O [SJFδ],neither PROTAC degrades,neither PROTAC degrades,more pronounced at each melting temperature,no detectable enrichment
COc1cc2c(Oc3ccc(NC(=O)C4(C(=O)Nc5ccc(F)cc5)CC4)cc3F)ccnc2cc1OCCCCOCCCCOCC(=O)N[C@H](C(=O)N1C[C@H](O)C[C@H]1C(=O)NCc1ccc(-c2scnc2C)cc1)C(C)(C)C [SJFα],neither PROTAC degrades,neither PROTAC degrades,"small, but statistically significant",substantial enrichment
